Measured values taken from a melting point compilation (Tetko et al.; mined from patent text by program, amines drawn as free bases though some values may be those of a salt).

| SMILES | melting point [°C] |
| --- | --- |
| CC(=N)Nc1cccc(O)c1 | 115 to 118 |
| O=C(c1ccc(O)cc1)c1ccc(OCCOCCO)cc1 | 126 to 127 |
| O=C(O)COc1cc2c(=O)c3ccccc3oc2cc1Cl | 237 to 238 |
| CC1(C)Oc2ccc(C#N)cc2[C@@H](Br)[C@@H]1O (relative stereo) | 111 to 112 |
| Cc1cnc(N2C(=O)C(O)=C(C(=O)c3ccc(C(C)C)cc3)C2c2ccc(OC(F)(F)F)cc2)s1 (stereo not given) | 243 to 244 |
| CC[C@H](C)[C@H](Nc1nc(C(=O)c2ccccc2)ns1)C(=O)N1CCC[C@H]1C(=O)O | 132 to 134 |
| CC1(C)CCC(NC(N)=O)CC1 | 174 to 176 |
| CCc1cn(C2CC(I)C(CO)O2)c(=O)[nH]c1=O (stereo not given) | 162 to 164 |
| CCCc1nn(-c2ccc(C(F)(F)F)cn2)cc1CCCC=O | 71 to 72 |
| COc1ccc2c(c1)CCC1CCNC(=O)C(CNC(C)C)=C21 (stereo not given) | 212 to 214 |
| CCOC(=O)c1cnc(S(=O)Cc2ccccc2)n1-c1c(CC)cccc1CC (stereo not given) | 82 to 83 |
| CN1CCN(c2cnc([N+](=O)[O-])c(Cl)n2)CC1 | 50 |
| COc1cc2ccccc2cc1C(=O)O | 130 to 132 |
| COc1ccc(C(=O)Nc2ccccc2)cc1NCc1cc(Cl)cc(Cl)c1 | 164 to 165 |
| Cc1ccc(Cc2cnc(NCCCN(Cc3ccccc3)c3ccccn3)[nH]c2=O)cn1 | 90 to 96 |
| O=C1CCCc2c1ccn2S(=O)(=O)c1ccccc1 | 108 to 110 |
| O=C(NCc1ccn(-c2cc3nc(C(=O)O)c(=O)[nH]c3cc2C(F)(F)F)c1)Nc1cccc(C(=O)O)c1 | 300 |
| CCCc1ccc(Oc2ccc3c(c2)C=C(C(=O)Nc2ccc(CN(C)C4CCOCC4)cc2)CCS3(=O)=O)cc1 | 147 to 149 |
| COc1nc(C(=O)NS(=O)(=O)c2c(Cl)cccc2Cl)cs1 | 162 to 165 |
| CC(C)CCNC(=O)c1ccccc1-c1ccccc1CNS(=O)(=O)c1ccccc1 | 127 |
| CCCCC(CC)COc1cc(-c2ccccn2)nc(-c2ccccn2)c1 (stereo not given) | 58.5 |
| Cn1c(CO)ncc(OCc2ccccc2)c1=O | 83 to 84 |
| Nc1ncc(-c2noc(-c3cnn4c(C(F)(F)F)cc(-c5ccc(C(F)(F)F)c(Cl)c5)nc34)n2)cn1 | 279 |
| CC(C)[C@H](C[C@H](O)[C@H](C)NC(=O)OC(C)(C)C)C(=O)NCCCn1ccnc1 | 148 to 150 |
| Nc1nc2ccc(S(=O)(=O)n3c(CCCC(=O)O)cc4nc(Cl)ccc43)cc2s1 | > 250 |

| SMILES | melting point [°C] |
| --- | --- |
| CN1C(=O)CC[C@]2(C)c3ccc(-c4cccc5cccnc45)cc3CC[C@@H]12 | 205 to 207 |
| Cc1cc(C)c(C)c(OC(C)(C)C(=O)O)c1 | 91 to 94 |
| C1=C(c2cccs2)CCN(CCCCc2c[nH]c3cc4c(cc23)OCO4)C1 | 86 |
| Cc1nn(-c2cc(Nc3ccc(N)cc3)c(Cl)cc2Cl)c(=O)n1C(F)F | 196 to 197 |
| COc1cc(CCN2CCN(C)CC2)cc(OC)c1-c1ccc(C[C@H](NC(=O)c2c(Cl)cccc2Cl)C(=O)O)cc1 | 179 |
| Clc1ncnc2c1ncn2-n1cccc1 | 204 to 206 |
| CCc1noc(-c2cc3c4ccccc4n(CCCN4CCC(O)(c5ccccc5)CC4)c3cn2)n1 | 169 to 170 |
| O=c1oc(=O)n(Cc2ccco2)c2ccccc12 | 131 to 133 |
| CCCn1c(=O)oc2cc(F)c([N+](=O)[O-])cc21 | 148 to 152 |
| CCc1ccc(N2CCCN(c3cc[nH]c(=S)c3C#N)CC2)cc1 | 226 to 229 |
| O=C1c2ccccc2-c2c1c1ccccc1c(=O)n2CCCl | 210 to 212 |
| CC(=O)c1ccc2[nH]c(C(=O)c3ccc(Cl)cc3)c(CC(=O)O)c2c1 | 225 |
| N#CC(NC(=O)c1cccn2ccnc12)c1ccco1 (stereo not given) | 149 to 151 |
| CCOC(=O)COc1ccc(Cn2c(-c3ccc(OCc4ccccc4)cc3)c(C)c3cc(OCc4ccccc4)ccc32)cc1OC | 120 to 123 |
| Cc1cc(CCCCCCCOc2ccc(C3=NCC(CO)O3)cc2)on1 (stereo not given) | 71 to 73 |
| CCOP(=O)(/C=C/c1cn(-c2ccccc2)nc1OCc1ccc(OCc2nc(-c3cccc(C(=O)OC)c3)oc2C)c(OC)c1)OCC | 112 to 113 |
| CCc1ccc(C2CCC(c3ccc(O)cc3)(c3ccc(O)cc3)CC2)cc1 | 187 to 188 |
| CN(C)CCc1c[nH]c2ccc(C=CC(=O)NCc3ccc([N+](=O)[O-])cc3)cc12 | 177 to 187 |
| CC(O)(C(O)C(O)=Cc1ccccc1)C(O)(Br)C(O)C(O)=Cc1ccccc1 (stereo not given) | 277 to 279 |
| Cc1c(NCCNCC(O)COc2ccccc2)c(=O)n(C)c(=O)n1C (stereo not given) | 92 to 94 |
| CCS(=O)(=O)N(C)C1c2cc(F)c(Cl)cc2OC(C)(C)C1O (stereo not given) | 188 to 190 |
| O=P(Oc1ccccc1)(Oc1ccc(-c2cssc2=S)cc1)Oc1ccc(-c2cssc2=S)cc1 | 75 to 80 |
| Cc1cccc(C(C(O)C(C)(C)C)n2ccnc2)c1 (stereo not given) | 126 |
| O=Cc1cccc2cc(C(=O)OCc3ccccc3)[nH]c12 | 62 |
| CC1OC(Cn2cncn2)(c2ccc(F)cc2F)C1(C)C (stereo not given) | 112 to 113 |

| SMILES | melting point [°C] |
| --- | --- |
| Cc1c(-c2cc(Cl)cc(Cl)c2)ccc(N)c1C#N | 182 |
| CCCc1c(OCc2ccccc2)ccc2c(=O)cc(C(=O)OCC)[nH]c12 | 121 to 122 |
| O=C1CCCC2=C1C(c1ccc(F)c(C(F)(F)F)c1)C1=C(CCS1)N2 (single isomer, unassigned; (+)) | > 250 |
| COCCNC(=O)c1cccc(-c2cccc3cc(Cc4cccc(F)c4)sc23)c1 | 108 to 110 |
| O=S(=O)(Nc1ccc(Oc2cccc3cccnc23)c(Cl)c1)c1ccc(Cl)cc1 | 198 |
| O=S(=O)(CCCCl)Nc1ccc(OCc2ccc3ccccc3n2)cc1 | 117 |
| CC=CC(=O)OCC(C)(Sc1cc2ccccc2n1C)c1ccccc1 (stereo not given) | 56 to 57 |
| COC(=O)CCSCCCCCCCCCCCCI | 33 |
| Cc1ccc(C(=O)Cl)cc1OCc1ccccc1 | 49 to 51 |
| COc1cc(N)nc(N2CCOCC2)n1 | 162 to 164 |
| Clc1cc(-c2cc3ccccc3s2)nc2ccccc12 | 142 to 145 |
| CC(C)N(CCN1C(=O)/C(=N/NC(=O)Nc2ccccc2)c2ccccc21)C(C)C | 157 to 159 |
| CC(C)(C)NC(=O)[C@@H]1[C@@H](Cl)CCN1C(=O)[C@@H](O)[C@H](Cc1ccccc1)NC(=O)[C@H](CC(N)=O)NC(=O)OCc1ccccc1 | 102 to 104 |
| CC1Cc2c(c3ccccc3n2C(=O)c2ccccc2)C(C)C1C(=O)O (stereo not given) | 142 to 145 |
| Cc1c(C(=O)Nc2ccc(CN3CCC(N4CCOCC4)CC3)c(C#N)c2)cnn1-c1ccc(Cl)cc1 | 167 to 168 |
| CCC(=O)OCOC(=O)C1=C(C)NC(C)=C(C(=O)OC)C1c1cccc(Cl)c1Cl (stereo not given) | 124 to 126 |
| O=C(O)c1c(-c2cccc(Cl)c2)csc1N1C(=O)c2ccccc2C1=O | 203 to 204 |
| COC(=O)c1ccc(Cl)cc1N(C)S(C)(=O)=O | 73 to 75 |
| CCOC(=O)c1cn(Cc2ccc(-c3ccccc3-c3nnnn3C(c3ccccc3)(c3ccccc3)c3ccccc3)cc2)c2sc(CC)cc2c1=O | 195 to 198 |
| C[N+]([O-])=C(Cn1ccnc1)c1ccc2ccccc2c1 | 112 to 114 |
| COc1ccc(C(=O)Cc2c(Cl)cccc2Cl)c2c1OCCO2 | 154 to 155 |
| O=C(O)C1=Cc2cc(Cl)ccc2N(Cc2ccc(Cl)cc2)C1C(F)(F)F (stereo not given) | 250 to 253 |
| COC(=O)CCCc1cc2nc(Cl)ccc2n1S(=O)(=O)c1ccc(OC(F)(F)F)cc1 | 109 |
| COc1cc(OC)nc(C(=O)c2cccc(Cl)c2C(=O)N(C)C)n1 | 141 to 142 |
| Cn1c(CC#N)ccc1C(=O)c1ccccc1 | 106 to 108 |

| SMILES | melting point [°C] |
| --- | --- |
| O=C1CCC(N2CCN(Cc3ccccc3)CC2)CC1 | 83 to 85 |
| CCN(C)c1nc2cc(NC(=O)c3c(C(=O)O)cnn3C)ccn2n1 | > 250 |
| O=c1cc[nH]c2cn[nH]c12 | > 320 |
| Cc1c(O)c(C)c(Br)c(C)c1Br | 144 to 146 |
| O=C1CCN(C(=O)c2cc(-c3ccccc3)c(=O)n3c2-c2sccc2CC3)CC1 | 218 to 220 |
| CCCCc1ccc(C#Cc2ccc(Br)cc2)cc1 | 75.6 to 76.1 |
| O[C@@H]1CN(Cc2ccccc2)C[C@@H]1Oc1cccc(Cl)c1 (relative stereo) | 86 to 87.5 |
| CCCCCCCCCCCCCCOc1ccc(CC(=O)Cl)cc1 | 78 to 80 |
| CC(C)(C)C(NC(=O)c1cccc(-c2ccco2)c1)Nc1c(Nc2cccnc2)c(=O)c1=O (stereo not given) | 251 to 252 |
| CCN1c2ccccc2Sc2cc(C=O)ccc21 | 94 to 95 |
| COc1cc(N)c(Cl)cc1C(=O)CCC1CCNCC1 | 138 to 140 |
| C=CCOC(=O)COc1ccc(CO)cc1 | 33.5 to 34.5 |
| COC[C@H](C1CC1)n1cc(Br)nc(Br)c1=O | 98.5 to 100 |
| O=P1(c2ccccc2)c2ccccc2CN1Cc1ccccc1 (stereo not given) | 99 to 101 |
| Cc1oc2ccccc2c(=O)c1O | 179 to 180 |
| O=C(O)c1ccc(OC(F)(F)F)c(Cl)c1Cl | 123 to 126 |
| COC1(OC)CCN(c2nc3c(cc2F)C=C(C(=O)O)CN3c2ccc(F)cc2F)C1 | 205 to 206 |
| CC1CC2=CC(=O)CCC2(C)C2C(=O)CC3(C)C(=O)CCC3C12 (stereo not given) | 235 to 237 |
| C=C(C)C(=O)N=c1ccn(-c2ccccc2)nc1 | 136 |
| CC(O)(C(=O)Nc1ccc(S(=O)(=O)F)cc1)C(F)(F)F (stereo not given) | 152 to 154 |
| COC(=O)CCCn1sc(Cl)cc1=O | 54 to 56 |
| CCOC(=O)C(=O)Nc1ccc2c(c1)-n1cc(C(=O)OC)nc1CO2 | 186 to 188 |
| Clc1ncc(Cl)c(-c2ccc(Cl)c(Cl)c2)n1 | 125 to 126 |
| CCOC(=O)c1cn(-c2ncnn2C)c2nc(Cl)c(F)cc2c1=O | 256 to 263 |
| OC(c1ccc(F)cc1)C1CC2CCN1CC2 (stereo not given) | 69 to 70 |
